In the first assay the test system is Hartley-type male guinea pigs. Put plainly: Guinea Pig Homogeneous Skin Passive Anaphylaxis Assay (PCA reaction). In kind it is in vivo, guinea pig (Hartley-type). The conditions noted are these: 10 mg/kg oral, 48 h after sensitization. On the procedure:
In order to confirm the anti-allergic action of the compounds according to the present invention, as an anti-allergic action confirmation assay, the widely used Guinea Pig Homogeneous Skin Passive Anaphylaxis Assay (PCA Reaction Assay; Passive Cutaneous Anaphylaxis Reaction Assay) was carried out. The assay method used will be explained in the following.
Assay method: Hartley-type male guinea pigs (body weight: 250~300 g) were sensitized by the following procedure; a mixture of 2 μg of egg albumin (OVA) and 5 μg of aluminium hydroxide gel was administered intraperitoneally 3 times every 2 weeks, and the anti-OVA blood serum was manufactured.
The anti-blood serum obtained was then diluted 120 times using physiological saline solution, and then to groups each containing 6 shaved guinea pigs, was injected at a quantity of 0.05 ml respectively, into two positions in the back portion, inside the skin of each animal.
After the 48th hour of sensitization, 10 mg/kg of the test substance to be tested was orally administered, following which a mixture of 2 mg OVA and 5 mg of Evans Blue was administered by intraveneous injection into the hind leg, triggering the anaphylaxis reaction. As the positive control, Tranilast, a well known anti-allergic agent, was used, and in the same manner as the substances to be tested, 100 mg/kg of it was orally administered after the 48th hour of sensitization.
30 minutes after triggering the reaction, the animals were bled to death under ether anesthesia, and their back portion skins were peeled off. The long and short diameters of pigment leakage spots on the interior surface of the skins were measured, and the product of these (mm^2) were entered into formula 1 as "pigment leakage amount", from which the allergic reaction inhibitory index wins calculated. [formula]
I: Allergic reaction inhibitory index (%)
A: Pigment leakage amount of solvent control group
B: Pigment leakage amount of test substance group
C: Pigment leakage amount of […]
`CCCCOc1c(O)c2c(OC)cccc2oc1=O` [Compound 225, 3-(butoxy)-4-hydroxy-5-(methoxy)-2H-1-benzopyran-2-one]: the “Allergic reaction inhibitory index (%)” value came out at 35%.
The same measure, in the same setting: the result for “3-(methoxy)-4-(decyloxy)-8-hydroxy-2H-1-benzopyran-2-one [Compound 99]” reads 33%.

The assay is the same for the next values; noted with them: Cavia porcellus, 10 mg/kg oral, 48 h after sensitization, read-out: Allergic reaction inhibitory index (%).
`CCCCCCCCCCOc1cccc2oc(=O)c(OC(C)C)c(O)c12` [Compound 233, 3-(isopropoxy)-4-hydroxy-5-(decyloxy)-2H-1-benzopyran-2-one]: the inhibition in vivo at 10 mg/kg turned out to be 39%.
Still for that read-out and setting: the result for `CC(C)=CCC/C(C)=C/COc1c(O)c2c(OC/C=C(\C)CCC=C(C)C)cccc2oc1=O` [Compound 253, 3,5-(digeranyloxy)-4-hydroxy-2H-1-benzopyran-2-one] reads 33%.
Still for that read-out and setting: the value for `COc1cccc2oc(=O)c(OC/C=C(\C)CCC=C(C)C)c(O)c12` [Compound 203, 3-(geranyloxy)-4-hydroxy-5-(methoxy)-2H-1-benzopyran-2-one] was 41%; that for `CCCCCCCCCCOc1c(OC(C)=O)c(=O)oc2c(OC(C)C)cccc12` [Compound 136, 3-(acetoxy)-4-(decyloxy)-8-(isopropoxy)-2H-1-benzopyran-2-one] was 33%.
With `CC(=O)Oc1c(OC(C)=O)c2c(OC(C)=O)cccc2oc1=O` [Compound 179, 3,4,5-(triacetoxy)-2H-1-benzopyran-2-one], the inhibition in vivo at 10 mg/kg was 32%.
Same read-out and setting: the result for `CCCCOc1c(OC(=O)c2ccccc2)c(=O)oc2cccc(O)c12` [Compound 224, 3-(benzoyloxy)-4-(butoxy)-5-hydroxy-2H-1-benzopyran-2-one] reads 30%; that for `CC(=O)Oc1c(OC(C)=O)c2cccc(OC(C)C)c2oc1=O` [Compound 132, 3,4-(diacetoxy)-8-(isopropoxy)-2H-1-benzopyran-2-one], 32%; that for `CCCCCCCCCCOc1c(O)c(=O)oc2cc(O)ccc12` [Compound 9, 4-(decyloxy)-3,7-(dihydroxy)-2H-1-benzopyran-2-one], 39%.
The same measure, in the same setting: the result for `CC(C)=CCC/C(C)=C/COc1cccc2c(OC(C)C)c(OC(=O)c3ccccc3)c(=O)oc12` [Compound 165, 3-(benzoyloxy)-4-(isopropoxy)-8-(geranyloxy)-2H-1-benzopyran-2-one] reads 30%.
Same read-out and setting: the result for `CCCCCCCCCCOc1c(O)c2cccc(OC(C)C)c2oc1=O` [Compound 133, 3-(decyloxy)-4-hydroxy-8-(isopropoxy)-2H-1-benzopyran-2-one] reads 36%.
Consider `O=c1oc2cc(O)ccc2c(O)c1O` [Compound 5, 3,4,7-trihydroxy-2H-1-benzopyran-2-one], for which the inhibition in vivo at 10 mg/kg stood at 68%.
On the same count and under the same terms, the result for `CCCCCCCCCCOc1cccc2c(OC(C)=O)c(O)c(=O)oc12` [Compound 145, 3-hydroxy-4-(acetoxy)-8-(decyloxy)-2H-1-benzopyran-2-one] reads 32%.
For `COc1ccc2c(OC(C)=O)c(OC(=O)c3ccccc3)c(=O)oc2c1` [Compound 35, 3-(benzoyloxy)-4-(acetoxy)-7-(methoxy)-2H-1-benzopyran-2-one], the inhibition in vivo at 10 mg/kg came to 30%.
Regarding `COc1ccc2c(O)c(OC(C)=O)c(=O)oc2c1` [Compound 29, 3-(acetoxy)-4-hydroxy-7-(methoxy)-2H-1-benzopyran-2-one], the inhibition in vivo at 10 mg/kg was determined as 46%.
With `CC(C)=CCC/C(C)=C/COc1c(OC(C)C)c(=O)oc2cc(O)ccc12` [Compound 25, 3-(isopropoxy)-4-(geranyloxy)-7-hydroxy-2H-1-benzopyran-2-one], the inhibition in vivo at 10 mg/kg was found to be 32%.
On the same count and under the same terms, the result for `CCCCCCCCCCOc1cccc2oc(=O)c(O)c(O)c12` [Compound 230, 3,4-(dihydroxy)-5-(decyloxy)-2H-1-benzopyran-2-one] reads 43%.
Still for that read-out and setting: the value for `CCCCCCCCCCOc1c(OC)c(=O)oc2cccc(OC(C)C)c12` [Compound 216, 3-(methoxy)-4-(decyloxy)-5-(isopropoxy)-2H-1-benzopyran-2-one] was 34%.
Take `CCCCCCCCCCOc1c(OC)c(=O)oc2cc(OC)ccc12` [Compound 36, 3,7-(dimethoxy)-4-(decyloxy)-2H-1-benzopyran-2-one]: the inhibition in vivo at 10 mg/kg worked out at 30%.
Still for that read-out and setting: the value for `CC(C)=CCC/C(C)=C/COc1c(OC(=O)c2ccccc2)c(=O)oc2cc(O)ccc12` [Compound 23, 3-(benzoyloxy)-4-(geranyloxy)-7-hydroxy-2H-1-benzopyran-2-one] was 30%.
Same read-out and setting: the value for `CCCCCCCCCCOc1c(O)c2cc(O)ccc2oc1=O` [Compound 266, 3-(decyloxy)-4,6-(dihydroxy)-2H-1-benzopyran-2-one] was 33%; that for `CC(C)=CCC/C(C)=C/COc1c(OC(=O)c2ccccc2)c(=O)oc2c(O)cccc12` [Compound 106, 3-(benzoyloxy)-4-(geranyloxy)-8-hydroxy-2H-1-benzopyran-2-one] was 31%; that for `O=C(Oc1c(O)c2c(O)cccc2oc1=O)c1ccccc1` [Compound 176, 3-(benzoyloxy)-4,5-dihydroxy-2H-1-benzopyran-2-one] was 34%.
The same measure, in the same setting: the value for `CC(=O)Oc1c(OC/C=C(\C)CCC=C(C)C)c(=O)oc2c(OC(C)=O)cccc12` [Compound 105, 3-(geranyloxy)-4,8-(diacetoxy)-2H-1-benzopyran-2-one] was 30%.
`CCCCCCCCCCOc1cccc2oc(=O)c(OC/C=C(\C)CCC=C(C)C)c(O)c12` [Compound 237, 3-(geranyloxy)-4-hydroxy-5-(decyloxy)-2H-1-benzopyran-2-one]: the inhibition in vivo at 10 mg/kg is 34%.
On to `CCCCCCCCCCOc1cccc2c(O)c(O)c(=O)oc12` [Compound 144, 3,4-(dihydroxy)-8-(decyloxy)-2H-1-benzopyran-2-one], for which the inhibition in vivo at 10 mg/kg stood at 34%.
Still for that read-out and setting: the value for `COc1cccc2oc(=O)c(OC(C)=O)c(OC/C=C(\C)CCC=C(C)C)c12` [Compound 206, 3-(acetoxy)-4-(geranyloxy)-5-(methoxy)-2H-1-benzopyran-2-one] was 32%; that for `O=C(Oc1c(O)c2cc(O)ccc2oc1=O)c1ccccc1` [Compound 262, 3-(benzoyloxy)-4,6-(dihydroxy)-2H-1-benzopyran-2-one] was 30%; that for `CC(C)=CCC/C(C)=C/COc1ccc2c(O)c(OC/C=C(\C)CCC=C(C)C)c(=O)oc2c1` [Compound 83, 3,7-(digeranyloxy)-4-hydroxy-2H-1-benzopyran-2-one] was 34%.
For the molecule `CC(=O)Oc1c(O)c(=O)oc2cc(OC/C=C(\C)CCC=C(C)C)ccc12` [Compound 76, 3-hydroxy-4-(acetoxy)-7-(geranyloxy)-2H-1-benzopyran-2-one], the inhibition in vivo at 10 mg/kg was determined as 32%.
On the same count and under the same terms, the value for `COc1c(OC(C)=O)c2cccc(OC/C=C(\C)CCC=C(C)C)c2oc1=O` [Compound 166, 3-(methoxy)-4-(acetoxy)-8-(geranyloxy)-2H-1-benzopyran-2-one] was 30%; that for `CC(=O)Oc1c(OC(=O)c2ccccc2)c2ccc(O)cc2oc1=O` [Compound 10, 3-(acetoxy)-4-(benzoyloxy)-7-hydroxy-2H-1-benzopyran-2-one] was 30%; that for `CC(C)=CCC/C(C)=C/COc1ccc2c(OC/C=C(\C)CCC=C(C)C)c(OC(C)C)c(=O)oc2c1` [Compound 88, 3-(isopropoxy)-4,7-(digeranyloxy)-2H-1-benzopyran-2-one] was 30%.
The same measure, in the same setting: the result for `COc1cccc2oc(=O)c(OC(C)C)c(O)c12` [Compound 198, 3-(isopropoxy)-4-hydroxy-5-(methoxy)-2H-1-benzopyran-2-one] reads 40%; that for `CC(C)Oc1ccc2c(O)c(OC(=O)c3ccccc3)c(=O)oc2c1` [Compound 44, 3-(benzoyloxy)-4-(hydroxy)-7-(isopropoxy)-2H-1-benzopyran-2-one], 37%.
On the same count and under the same terms, the result for `CCCCCCCCCCOc1ccc2c(OC(C)C)c(O)c(=O)oc2c1` [Compound 63, 3-hydroxy-4-(isopropoxy)-7-(decyloxy)-2H-1-benzopyran-2-one] reads 37%; that for `CCCCCCCCCCOc1cccc2oc(=O)c(O)c(OC/C=C(\C)CCC=C(C)C)c12` [Compound 238, 3-hydroxy-4-(geranyloxy)-5-(decyloxy)-2H-1-benzopyran-2-one], 33%.
Regarding `CCCCCCCCCCOc1c(O)c(=O)oc2cccc(O)c12` [Compound 183, 3,5-(dihydroxy)-4-(decyloxy)-2H-1-benzopyran-2-one], the inhibition in vivo at 10 mg/kg worked out at 30%.
Same read-out and setting: the value for `COc1cccc2oc(=O)c(OC(C)=O)c(OC)c12` [Compound 201, 3-(acetoxy)-4,5-(dimethoxy)-2H-1-benzopyran-2-one] was 31%.
Same read-out and setting: the result for `CCCCCCCCCCOc1ccc2oc(=O)c(OC)c(O)c2c1` [Compound 275, 3-(methoxy)-4-(hydroxy)-6-(decyloxy)-2H-1-benzopyran-2-one] reads 36%.

The values above are taken from US5428059A, “Benzopyran derivatives and an anti-allergic agent possessing the same as the active ingredient” (Dainippon Ink & Chemicals, Inc., priority 1991, dated 1995).
